These results are taken from patent publication US20230257383A1, “COMPOUND SERVING AS BTK INHIBITOR, PREPARATION METHOD THEREFOR, AND USE THEREOF” (CHENGDU HYPERWAY PHARMACEUTICALS CO., LTD., priority 2020, published 2023).

A short description of data set [1]: Liver microsome metabolic stability test (human). It is filed as in vitro ADME. Conditions: liver microsomes, read-out: CLint (μL/min/mg) Human. How it is done:
(§1) 1: To the sample wells of T0, T5, T10, T20, T30, T60 and NCF60, 10 μL of the test or reference working solution and 80 μL of microsome working solution (hepatic microsome with a protein concentration of 0.5 mg/mL) were added, and to Blank60 well, only the microsome working solution was added. Then samples of the Blank60, T5, T10, T20, T30 and T60 other than TO and NCF60 were placed in a 37° C. water bath and pre-incubated for about 10 min.
(§2) 2: To the TO sample well, 300 μL of stop solution (containing 200 ng/mL tolbutamide and 200 ng/mL labetalol in acetonitrile solution) was added first, followed by 10 μL of NADPH regeneration system working solution.
(§3) 3: After the pre-incubation of Blank60, T5, T10, T20, T30 and T60 incubation plates, 10 μL of NADPH regeneration system working solution was added to each sample well to start the reaction, and 10 μL of 100 mM potassium phosphate buffer was added to the NCF60 sample well.
(§4) 4: After incubation for an appropriate time (such as 5, 10, 20, 30 and 60 min), to each test sample well and control well of the Blank60, T5, T10, T20, T30, T60 and NCF60 plates, 300 μL of stop solution was added to terminate the reaction.
(§5) 5: All sample plates were shaken to mix well and centrifuged at 4000 rpm for 20 min, and 100 μL of the supernatant of the test sample or control sample was taken and diluted with 300 μL of pure water for LC-MS/MS analysis.
(§6) 6: Data analysis: T1/2 and CLint(mic) (μL/min/mg) values were calculated according to the first-order elimination kinetics. The first-order elimination kinetics equation was: […]
On the technique in general: Liver microsomes are a subcellular fraction often used to study metabolism.

The nature of data set [2]: Liver microsome metabolic stability test (rat). The class given is in vitro ADME. The conditions noted are these: liver microsomes, read-out: CLint (μL/min/mg) Rat. The procedure:
as §1, §2, §3, §4, §5, §6

The nature of data set [3]: Pharmacokinetic test, oral, SD rats. The class given is in vivo. Conditions: oral 10 mg/kg. The procedure:
Each test compound was administered orally (10 mg/kg, 3 rats in each group) to SD rats for pharmacokinetic study. […] Animals were fasted overnight before oral administration, and fed again after 4 h of administration. […] At each collection time point, 3 whole blood samples were collected at a the collection volume of about 0.2-0.3 mL. […] The collected plasma was stored at −20° C. before analysis. 20 μL of plasma sample was added into a 1.6 mL 96-well deep-well plate, added with 200 μL of working internal standard solution (the same volume of vehicle was added to the blank instead of internal standard), vortexed for 1 min, and centrifuged at 5800 rpm for 10 min. 100 μL of the supernatant was added to a 96-well injection plate for LC-MS/MS analysis.

Another data set deals with TMD8 cell proliferation. The data set is described as follows: In vitro cell proliferation inhibitory activity test (CTG), TMD8. The class given is cell-based. Conditions: Homo sapiens, TMD8, 72 h, TMD8 cells. How it is done:
(§7) Test Example 4: In Vitro Cell Proliferation Inhibitory Activity Test
(§8) Cells were cultured in 1640 medium, added with 10% inactivated FBS and 1% double antibiotics, and cultured at 37° C. and 5% CO2.
(§9) (1) Cells were routinely cultured until the cell density was 80%-90%, and the cells were harvested when their number reached the requirement.
(§10) (2) Cells were resuspended with corresponding culture medium, counted, and prepared into cell suspension at appropriate density.
(§11) (3) The cell suspension was added to a 96-well plate, 100 μL per well.
(§12) (4) Cells were cultured overnight in a 37° C., 5% CO2 incubator.
(§13) (1) The compounds to be tested were diluted with DMSO to make a stock solution with a final concentration of 20 mM for later use.
(§14) (2) The stock solution was diluted 10 times from 20 mM to 2 mM with DMSO, and then diluted 3 times from 2 mM to 9 concentrations.
(§15) (3) The blank control wells were cells plus 0.5% DMSO, as high-reading control wells.
(§16) (4) Wells with no cells and only medium were used as low-reading control wells.
(§17) 4: Cell treatment with compound
(§18) (1) 24 h after the cells were plated, the compounds acted alone, and 99 μL of growth medium was added to each well, followed by 1 μL of the compound prepared in step 3. The plate was shaken gently to mix uniformly, and then placed in a 37° C., 5% CO2 incubator.
(§19) (2) The cell plate was placed in an incubator for 72 h.
(§20) 5: Detection by CTG method
(§21) (1) The cell plate to be tested was placed at room temperature for 30 min, and 100 μL of medium was discarded from each well.
(§22) (2) 100 μL of CTG reagent (CelltiterGlo kit) was added to each well, placed on a fast shaker for 2 min, and stood at room temperature in the dark for 30 min.
(§23) (3) The chemiluminescent signal value was read with the Envision instrument.
(§24) IC50 was calculated by using GraphPad Prism 8 software. The IC50 (half inhibitory concentration) of the compound was derived using the following nonlinear fitting formula, and the results are shown in the following table:
(§25) Y=Bottom+(Top−Bottom)/(1+10^((Log IC50−X)×HillSlope))
(§26) X: log value of compound concentration, Y: inhibition rate (% inhibition)
(§27) Inhibition rate (% inhibition)=(reading of high-reading control well-reading of compound well)/(reading of high-reading control well-reading of low-reading control well)×100

For another data set, the system named is DOHH2 cell proliferation. Nature of the data set: In vitro cell proliferation inhibitory activity test (CTG), DOHH2. Conditions: Homo sapiens, DOHH-2. The class given is cell-based. How it is done:
as §7, §8, §9, §10, §11, §12, §13, §14, §15, §16, §17, §18, §19, §20, §21, §22, §23, §24, §25, §26, §27

Data set [4] deals with TMD8 mouse subcutaneous xenograft tumor. The data set is described as follows: TMD8 pharmacodynamic model test. Conditions: same dose of 10 mg/kg, FIG. 1. The class given is in vivo. The procedure: Test Example 7: TNMD8 Pharmacodynamic Model Test
Human diffuse large B-cell lymphoma TMD8 cells were monolayer-cultured in vitro in RPNHI1640 medium with […], 100 U/mL penicillin and 100 μg/mL streptomycin, in a 37° C., […] incubator. Routine digestion with trypsin-EDTA was performed twice a week for passaging. When the cell density was […] and the number reached the requirement, cells were harvested, counted and inoculated. 0.2 ml (1×10^7 cells) of TMVD8 cells (added with matrigel at a volume ratio of 1:1) were subcutaneously inoculated on the right back of each mouse. The mice were administered in groups when the average tumor volume reached about 137 mm^3. Tumor diameters were measured twice a week with vernier calipers. The tumor volume was calculated by the formula V=0.5 a×b^2, where a and b represent the long and short diameters of the tumor, respectively.

Take `Nc1nccn2c(C34CCC(CO)(CC3)OC4)nc(-c3ccc(C(=O)Nc4cc(C(F)(F)F)ccn4)cc3)c12` [Example 118]: the microsomal CLint in data set [1] is under 9.6 µL/min/mg; in data set [2] it was 13.7 µL/min/mg. Besides, the “Cl” value in data set [3] was 0.8 mL/min/kg. The IC50 in the data set on TMD8 cell proliferation came to 23.8 nM; in the data set on DOHH2 cell proliferation, 250 nM. The “inhibitory effect against the tumor compared with ARQ-531 and ibrutinib” value in data set [4] is “significantly better inhibitory effect against the tumor than the clinical phase II drug ARQ-531 and the marketed drug ibrutinib”.

For orientation: IC50 means the concentration at which inhibition is half-maximal.
